Experiments:
[1] = tested on: adenylosuccinate synthetase; experiment: Adenylosuccinate synthetase activity in hamster hair follicles after topical treatment; type: in vivo; conditions: 10% solution, twice over a 24 hour period
[2] = tested on: hamster flank organ; experiment: Reduction of hair growth (hair mass) on hamster flank organ after topical application; type: in vivo, Golden Syrian hamster; conditions: for Percent Inhibition of Hair Growth: vs vehicle-treated organ
Description: L-alanosine was mixed with separate portions of the foregoing vehicle to provide specimens containing 0.1, 0.5, 1, 2, and 6% by weight respectively of the inhibitor and the pH was adjusted to pH 7.5 with sodium hydroxide.
Four groups (eight animals in each group) of male intact Golden Syrian hamsters were provided. These animals were considered acceptable models for human beard hair growth in that they display oval shaped flank organs, one on each side, each about 8 mm. in major diameter, which grow thick black and coarse hair similar to human beard hair. These organs produce hair in response to androgens in the hamster. The flank organs of each hamster were depilated by applying a thioglycolat-- based chemical depilatory (Surgex), and to one organ of each animal was applied 10-25 μl. of vehicle alone once a day, while to the other organ of each animal was applied an equal amount of vehicle containing inhibitor. After three weeks of such applications (five days a week), the flank organs were shaved and the amount of recovered hair (hair mass) from each was weighed. The extent of reduction in hair growth by the inhibitor was expressed as the percent decrease in hair mass on the organ treated with inhibitor as compared to the organ treated with vehicle alone. As a control, one group of eight animals had both flank organs of each animal treated with vehicle alone.
A series of compositions was prepared containing various percentages by weight of N-phosphonacetyl-L-aspartic acid (PALA) in the vehicle described in Example 1 above adjusted to pH 4.5, and applied to hamster flank organs under the same conditions as described in Example 1. The reduction in hair growth observed after three weeks was as follows: […]

[3] = tested on: adenosine nucleotide contents of hair follicles; experiment: Adenosine nucleotide contents of flank organ hair follicles after topical treatment; type: in vivo, hamster; conditions: 10% in vehicle, three days of daily treatments
Experimental: The effect of the enzyme inhibition, was further shown by measurements of hair follicle nucleotide levels after topical treatment with L-alanosine. A group of eight hamsters was treated topically with L-alanosine (10% in the vehicle above) on one flank organ while the other organ received an equal amount of just the vehicle. After three days of daily treatments, the hair follicles from the flank organs were removed and the adenosine nucleotide contents were determined.

[4] = tested on: aspartate transcarbamylase; experiment: Aspartate transcarbamylase activity in hamster hair follicles after topical treatment; type: in vivo; conditions: 10% solution, two treatments over a 24 hour period
[5] = tested on: pyrimidine nucleotide content of hair follicles; experiment: Pyrimidine nucleotide content of hair follicles after topical treatment; type: in vivo, hamster; conditions: same treatment protocol as nucleotide content in Example 1 (10%, three days daily)
[6] = L-alanosine 0.5%, 25 μl, pH 7.5, three weeks
[7] = L-alanosine 1.0%, 25 μl, pH 7.5, three weeks
[8] = L-alanosine 2.0%, 25 μl, pH 7.5, three weeks
[9] = L-alanosine 6.0%, 25 μl, pH 7.5, three weeks
[10] = PALA 2%, 10 μl, pH 4.5, three weeks
[11] = PALA 2%, 25 μl, pH 4.5, three weeks
[12] = PALA 4%, 25 μl, pH 4.5, three weeks
[13] = PALA 6%, 10 μl, pH 4.5, three weeks
[14] = PALA 6%, 25 μl, pH 4.5, three weeks

In the case of `N[C@@H](CN(O)N=O)C(=O)O` [L-alanosine, L-2-amino-3-(N-hydroxy, N-nitrosamino) propionic acid], the “inhibition of adenylosuccinate synthetase activity” value [1] is reported as “about 49%”, the “Hamster Flank Organ Hair Mass, Treated Mean” value (from here on “Hamster Flank Organ Hair Mass”) ([2]; L-alanosine 0.1%, 25 μl, pH 7.5, once a day, five days a week, three weeks) is reported as 0.68 mg and the “Percent Inhibition of Hair Growth” value ([2]; L-alanosine 0.1%, 25 μl, pH 7.5, three weeks) is reported as 18%. The “Hamster Flank Organ Hair Mass” value [2, 6] was 0.67 mg, the “Percent Inhibition of Hair Growth” value [2, 6] was 32% and the “Hamster Flank Organ Hair Mass” value [2, 7] was 0.38 mg. The “Percent Inhibition of Hair Growth” value [2, 7] was 47%, the “Hamster Flank Organ Hair Mass” value [2, 8] was 0.51 mg and the “Percent Inhibition of Hair Growth” value [2, 8] was 61%. For the same compound, the “Hamster Flank Organ Hair Mass” value [2, 9] was 0.07 mg, the “Percent Inhibition of Hair Growth” value [2, 9] was 92% and the “Nature of the hair on the treated organ” value ([2]; treated vs untreated organ, Table 1 footnote) was “more vellous”. For the same compound, the “reduction in ADP levels in hair follicles” value [3] was 40%, the “reduction in AMP levels in hair follicles” value [3] was 50% and the “reduction in ATP levels in hair follicles” value [3] was 29%.
For `O=C(O)C[C@H](NC(=O)CP(=O)(O)O)C(=O)O` [PALA, N-phosphonacetyl-L-aspartic acid], the “reduction of aspartate transcarbamylase activity” value [4] was 72%, the “Hamster Flank Organ Hair Mass” value [2, 10] was 1.36 mg and the “Percent Inhibition of Hair Growth” value [2, 10] was 13%. The “Hamster Flank Organ Hair Mass” value [2, 11] was 1.34 mg, the “Percent Inhibition of Hair Growth” value [2, 11] was 19% and the “Hamster Flank Organ Hair Mass” value [2, 12] was 0.85 mg. For the same compound, the “Percent Inhibition of Hair Growth” value [2, 12] was 50%, the “Hamster Flank Organ Hair Mass” value [2, 13] was 0.37 mg and the “Percent Inhibition of Hair Growth” value [2, 13] was 78%. The “Hamster Flank Organ Hair Mass” value [2, 14] was 0.23 mg, the “Percent Inhibition of Hair Growth” value [2, 14] was 87% and the “inhibition of CDP (hair follicle content)” value [5] was 19%. For the same compound, the “inhibition of CTP (hair follicle content)” value [5] was 60%, the “inhibition of UDP (hair follicle content)” value [5] was 25% and the “inhibition of UTP (hair follicle content)” value [5] was 50%.
